Experimental data from ChEMBL document CHEMBL1139273, “Aryl aminopyrazole benzamides as oral non-steroidal selective glucocorticoid receptor agonists” (Bioorg Med Chem Lett, 2009).

Columns and labels:
[1] = test system: A549; test: Inhibition of TNF-induced NFkappaB activation in human A549 cells after 15 hrs relative to Dexamethasone; type: cell-based; parameters: scale not given: the % may be the effect or the level left
[2] = Inhibition of TNF-induced NF-kappaB activation in human A549 cells after 15 hrs; conditions: for IC50: Homo sapiens, A549, 15 h, read-out: pIC50 (converted); for pIC50: a549
[3] = target: T1, Cytochrome P450 1A2 (Homo sapiens, UniProt P05177); test: Inhibition of CYP1A2; type: ADME
T1 sequence (P05177 whole entry): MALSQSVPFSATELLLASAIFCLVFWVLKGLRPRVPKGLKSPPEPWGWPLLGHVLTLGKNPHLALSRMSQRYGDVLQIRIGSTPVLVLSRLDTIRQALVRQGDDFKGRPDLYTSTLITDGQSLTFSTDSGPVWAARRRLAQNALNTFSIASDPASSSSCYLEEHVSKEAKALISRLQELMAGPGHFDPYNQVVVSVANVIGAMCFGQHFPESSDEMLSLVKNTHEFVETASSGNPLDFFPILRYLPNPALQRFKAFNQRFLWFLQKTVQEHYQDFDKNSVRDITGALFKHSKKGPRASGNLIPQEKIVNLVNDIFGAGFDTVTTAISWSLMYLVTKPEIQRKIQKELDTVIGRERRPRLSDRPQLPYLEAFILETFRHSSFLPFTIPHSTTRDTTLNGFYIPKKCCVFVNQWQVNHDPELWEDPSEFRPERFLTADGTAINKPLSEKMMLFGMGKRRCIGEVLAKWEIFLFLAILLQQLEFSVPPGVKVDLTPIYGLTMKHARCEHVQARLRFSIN

[4] = target: Cytochrome P450 2C19 (Homo sapiens, UniProt P33261); test: Inhibition of CYP2C19; type: ADME
Chain of Cytochrome P450 2C19 (P33261 whole entry): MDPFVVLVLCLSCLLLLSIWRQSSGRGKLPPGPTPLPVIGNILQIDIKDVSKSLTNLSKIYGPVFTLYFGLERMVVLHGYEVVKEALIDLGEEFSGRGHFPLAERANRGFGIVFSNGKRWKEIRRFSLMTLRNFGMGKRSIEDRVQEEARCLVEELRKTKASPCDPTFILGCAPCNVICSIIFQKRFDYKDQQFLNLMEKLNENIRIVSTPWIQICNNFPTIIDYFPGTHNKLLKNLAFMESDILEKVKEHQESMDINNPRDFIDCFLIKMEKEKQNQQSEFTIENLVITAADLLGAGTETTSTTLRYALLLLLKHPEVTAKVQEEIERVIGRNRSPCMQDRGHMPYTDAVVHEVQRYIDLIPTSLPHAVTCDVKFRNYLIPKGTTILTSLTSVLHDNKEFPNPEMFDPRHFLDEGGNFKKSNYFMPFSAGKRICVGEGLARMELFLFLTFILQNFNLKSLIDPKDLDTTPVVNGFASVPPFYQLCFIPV

[5] = target: Cytochrome P450 2C9 (Homo sapiens, UniProt P11712); test: Inhibition of CYP2C9; type: ADME
Chain of Cytochrome P450 2C9 (P11712 whole entry): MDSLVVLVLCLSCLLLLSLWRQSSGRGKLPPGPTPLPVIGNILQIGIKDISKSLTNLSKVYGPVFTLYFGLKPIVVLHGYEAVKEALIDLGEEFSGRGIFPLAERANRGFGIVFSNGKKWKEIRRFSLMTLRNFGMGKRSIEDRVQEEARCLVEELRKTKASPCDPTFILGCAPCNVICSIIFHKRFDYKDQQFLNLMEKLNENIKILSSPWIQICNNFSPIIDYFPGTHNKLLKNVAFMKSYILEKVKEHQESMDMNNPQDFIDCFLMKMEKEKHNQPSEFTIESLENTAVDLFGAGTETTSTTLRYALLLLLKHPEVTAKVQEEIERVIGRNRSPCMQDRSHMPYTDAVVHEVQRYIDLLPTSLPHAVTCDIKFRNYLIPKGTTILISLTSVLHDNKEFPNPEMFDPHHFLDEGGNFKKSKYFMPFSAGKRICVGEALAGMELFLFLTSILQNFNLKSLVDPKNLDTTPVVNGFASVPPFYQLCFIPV

[6] = target: Cytochrome P450 2D6 (Homo sapiens, UniProt P10635); test: Inhibition of CYP2D6; type: ADME
Chain of Cytochrome P450 2D6 (P10635 whole entry): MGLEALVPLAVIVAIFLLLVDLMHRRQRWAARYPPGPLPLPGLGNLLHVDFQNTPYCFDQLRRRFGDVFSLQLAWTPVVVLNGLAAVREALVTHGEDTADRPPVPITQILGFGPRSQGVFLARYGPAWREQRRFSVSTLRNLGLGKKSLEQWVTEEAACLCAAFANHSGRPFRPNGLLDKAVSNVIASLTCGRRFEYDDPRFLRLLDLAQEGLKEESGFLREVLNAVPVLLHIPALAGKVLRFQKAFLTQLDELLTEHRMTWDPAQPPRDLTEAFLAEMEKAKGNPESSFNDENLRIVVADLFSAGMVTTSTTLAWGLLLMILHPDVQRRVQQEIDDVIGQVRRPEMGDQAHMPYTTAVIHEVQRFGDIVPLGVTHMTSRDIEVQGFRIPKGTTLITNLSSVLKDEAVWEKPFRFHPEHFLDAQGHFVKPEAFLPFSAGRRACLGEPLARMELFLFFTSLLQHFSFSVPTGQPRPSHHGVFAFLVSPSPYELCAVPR

[7] = target: T2, Glucocorticoid receptor (Homo sapiens, UniProt P04150)
T2 sequence (P04150 whole entry): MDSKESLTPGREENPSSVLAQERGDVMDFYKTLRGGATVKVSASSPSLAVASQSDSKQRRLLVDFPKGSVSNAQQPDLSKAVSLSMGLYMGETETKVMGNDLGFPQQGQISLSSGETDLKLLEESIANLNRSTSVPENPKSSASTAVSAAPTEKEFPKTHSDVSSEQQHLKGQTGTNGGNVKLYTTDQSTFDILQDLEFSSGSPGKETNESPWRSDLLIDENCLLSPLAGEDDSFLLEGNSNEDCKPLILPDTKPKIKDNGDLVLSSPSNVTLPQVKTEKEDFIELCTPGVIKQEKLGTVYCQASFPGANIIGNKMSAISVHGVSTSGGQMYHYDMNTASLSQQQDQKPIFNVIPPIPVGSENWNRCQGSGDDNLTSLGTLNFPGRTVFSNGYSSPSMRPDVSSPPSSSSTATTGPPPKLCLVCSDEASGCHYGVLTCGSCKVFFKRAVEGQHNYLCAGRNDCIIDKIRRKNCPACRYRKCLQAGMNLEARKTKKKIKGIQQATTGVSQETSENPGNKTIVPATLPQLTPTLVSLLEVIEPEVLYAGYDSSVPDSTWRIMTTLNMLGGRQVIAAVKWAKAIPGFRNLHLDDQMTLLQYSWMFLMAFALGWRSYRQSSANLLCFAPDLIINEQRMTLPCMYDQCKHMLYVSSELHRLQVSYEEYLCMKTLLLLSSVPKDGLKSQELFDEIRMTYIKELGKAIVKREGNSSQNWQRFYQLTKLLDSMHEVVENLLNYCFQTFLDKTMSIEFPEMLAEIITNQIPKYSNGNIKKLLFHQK
Description: Displacement of fluorescent labelled Dexamethasone from glucocorticoid receptor

[8] = target: T2, Glucocorticoid receptor; remark: listed apart in the source
Description: Agonist activity at human glucocorticoid receptor in human A549 cells assessed as transcriptional activity by MMTV luciferase reporter gene assay

[9] = target: Cytochrome P450 3A4 (Homo sapiens, UniProt P08684)
Chain of Cytochrome P450 3A4 (P08684 whole entry): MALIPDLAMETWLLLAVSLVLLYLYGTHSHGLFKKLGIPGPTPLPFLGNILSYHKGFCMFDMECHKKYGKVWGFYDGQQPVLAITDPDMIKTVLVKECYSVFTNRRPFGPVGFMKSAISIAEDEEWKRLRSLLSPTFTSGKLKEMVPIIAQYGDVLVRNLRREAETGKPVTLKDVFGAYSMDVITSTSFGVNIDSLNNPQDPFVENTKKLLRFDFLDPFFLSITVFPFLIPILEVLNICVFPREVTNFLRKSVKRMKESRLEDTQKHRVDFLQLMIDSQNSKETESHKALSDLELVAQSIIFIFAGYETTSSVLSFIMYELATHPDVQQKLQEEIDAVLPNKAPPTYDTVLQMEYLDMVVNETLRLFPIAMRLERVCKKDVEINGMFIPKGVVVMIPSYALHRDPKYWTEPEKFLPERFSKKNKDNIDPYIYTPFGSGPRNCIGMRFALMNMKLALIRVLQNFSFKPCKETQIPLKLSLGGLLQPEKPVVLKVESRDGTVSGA

[10] = target: Albumin (Homo sapiens, UniProt P02768); test: Binding affinity to human serum albumin by fast gradient HPLC; type: ADME; conditions: isolated protein
Chain of Albumin (P02768 whole entry): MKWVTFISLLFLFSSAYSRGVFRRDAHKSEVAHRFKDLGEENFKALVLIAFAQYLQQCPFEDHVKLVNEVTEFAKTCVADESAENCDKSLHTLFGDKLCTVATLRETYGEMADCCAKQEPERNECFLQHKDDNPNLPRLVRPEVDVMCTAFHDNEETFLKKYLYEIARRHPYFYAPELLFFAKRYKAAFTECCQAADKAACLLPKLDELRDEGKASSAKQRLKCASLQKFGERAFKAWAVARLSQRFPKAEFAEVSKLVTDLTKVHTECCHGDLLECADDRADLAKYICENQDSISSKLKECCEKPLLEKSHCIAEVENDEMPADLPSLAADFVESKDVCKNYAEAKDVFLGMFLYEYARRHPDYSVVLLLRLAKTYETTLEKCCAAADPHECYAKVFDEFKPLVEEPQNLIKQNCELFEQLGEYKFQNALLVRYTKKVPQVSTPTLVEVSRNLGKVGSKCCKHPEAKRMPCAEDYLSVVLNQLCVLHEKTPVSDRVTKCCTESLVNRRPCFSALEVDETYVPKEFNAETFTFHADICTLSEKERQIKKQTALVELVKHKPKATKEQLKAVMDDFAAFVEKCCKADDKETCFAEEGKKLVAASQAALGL

[11] = Clearance in Sprague-Dawley rat at 1 mg/kg, iv and 1 mg/kg, po; type: ADME, organism-based; conditions: in vivo
[12] = Volume of distribution at steady state in Sprague-Dawley rat at 1 mg/kg, iv and 1 mg/kg, po; type: ADME, organism-based; conditions: in vivo, read-out: Vdss
[13] = Oral bioavailability in Sprague-Dawley rat at 1 mg/kg; type: ADME, organism-based; conditions: in vivo

Row | SMILES | Activity [1] | IC50 [2] | IC50 [7] | EC50 [8] | also measured
1 | CCN(CC(O)(CNC(=O)c1cnn(-c2ccc(F)cc2)c1N)C(F)(F)F)C(=O)c1ncccc1Cl (stereo not given) | 99% |  |  |  | 
2 | CN(CC(O)(CNC(=O)c1cnn(-c2ccc(F)cc2)c1N)C(F)(F)F)C(=O)c1c(F)cccc1F (racemic) | 95% | 50.1 nM | 79.4 nM | 251 nM | IC50 [3]: 100000 nM; IC50 [4]: 49000 nM; IC50 [5]: 10000 nM; IC50 [6]: 36000 nM; IC50 [9]: 100000 nM
3 | CCN(CC(O)(CNC(=O)c1cnn(-c2ccc(F)cc2)c1N)C(F)(F)F)C(=O)c1ccccc1Cl (stereo in doubt; 13e) [listing 1 of 2 here] |  |  |  |  | IC50 [3]: 100000 nM; IC50 [4]: 20000 nM; IC50 [5]: 10000 nM; IC50 [6]: 34000 nM; IC50 [9]: 4000 nM
4 | CCN(CC(O)(CNC(=O)c1cnn(-c2ccc(F)cc2)c1N)C(F)(F)F)C(=O)c1ccccc1S(C)(=O)=O (stereo not given) [listing 1 of 2 here] |  | 20 nM | 63.1 nM | 158 nM | IC50 [3]: > 40000 nM; IC50 [4]: 87000 nM; IC50 [5]: 23000 nM; IC50 [6]: 96000 nM; Activity [10]: 81%
5 | CCN(CC(O)(CNC(=O)c1cnn(-c2ccc(F)cc2)c1N)C(F)(F)F)C(=O)c1ccccc1Cl (stereo in doubt; 13d) [listing 1 of 2 here] | 95% |  |  |  | 
6 | CCN(CC(O)(CNC(=O)c1cnn(-c2ccc(F)cc2)c1N)C(F)(F)F)C(=O)c1cccc(Cl)c1 (racemic) | 96% | 31.6 nM | 15.8 nM | 251 nM | 
7 | CCN(CC(O)(CNC(=O)c1cnn(-c2ccc(F)cc2)c1N)C(F)(F)F)C(=O)c1cccnc1Cl (racemic) | 75% | 251 nM | 39.8 nM | 794 nM | 
8 | CCN(CC(O)(CNC(=O)c1cnn(-c2ccc(F)cc2)c1N)C(F)(F)F)C(=O)c1ccccc1 (stereo in doubt; 13c) [listing 1 of 2 here] |  |  | 12.6 nM | 25.1 nM | pIC50 [2]: 8
9 | CCN(CC(O)(CNC(=O)c1cnn(-c2ccc(F)cc2)c1N)C(F)(F)F)C(=O)c1cccc(F)c1Cl (racemic) | 92% | 20 nM | 7.94 nM | 50.1 nM | 
10 | CCN(CC(O)(CNC(=O)c1cnn(-c2ccc(F)cc2)c1N)C(F)(F)F)C(=O)c1ccccc1 (stereo in doubt; 13c) [listing 2 of 2 here] | 94% |  |  |  | 
11 | CCN(CC(O)(CNC(=O)c1cnn(-c2ccc(F)cc2)c1N)C(F)(F)F)C(=O)c1ccccc1S(C)(=O)=O (racemic) |  |  |  |  | clearance [11]: 17 mL/min/kg; Vd [12]: 3.6 L/kg; bioavailability [13]: 77%
12 | CCN(CC(O)(CNC(=O)c1cnn(-c2ccc(F)cc2)c1N)C(F)(F)F)C(=O)c1ccccc1Cl (stereo in doubt; 13e) [listing 2 of 2 here] | 75% |  |  |  | 
13 | CCN(CC(O)(CNC(=O)c1cnn(-c2ccc(F)cc2)c1N)C(F)(F)F)C(=O)c1ccccc1F (stereo not given) | 98% | 12.6 nM | 12.6 nM | 20 nM | 
14 | Nc1c(C(=O)NCC(O)(CNC(=O)c2c(F)cccc2F)C(F)(F)F)cnn1-c1ccc(F)cc1 (racemic) | 80% | 316 nM | 398 nM | > 6310 nM | 
15 | CCN(CC(O)(CNC(=O)c1cnn(-c2ccc(F)cc2)c1N)C(F)(F)F)C(=O)c1ccccc1S(C)(=O)=O (stereo not given) [listing 2 of 2 here] | 99% |  |  |  | 
16 | C[C@]12C=CC(=O)C=C1CC[C@@H]1[C@@H]2[C@@H](O)C[C@@]2(C)[C@H]1CC[C@]2(O)C(=O)CO [PREDNISOLONE] | 100% | 10 nM |  |  | 
17 | CCN(CC(O)(CNC(=O)c1cnn(-c2ccc(F)cc2)c1N)C(F)(F)F)C(=O)c1ccccc1Cl (stereo in doubt; 13d) [listing 2 of 2 here] |  |  |  |  | IC50 [3]: 100000 nM; IC50 [4]: 8000 nM; IC50 [5]: 4000 nM; IC50 [6]: 27000 nM; IC50 [9]: 2000 nM
18 | CCN(CC(O)(CNC(=O)c1cnn(-c2ccc(F)cc2)c1N)C(F)(F)F)C(=O)c1ncccc1Cl (racemic) |  |  |  |  | clearance [11]: 23 mL/min/kg; Vd [12]: 2.8 L/kg; bioavailability [13]: 48%
19 | CCN(CC(O)(CNC(=O)c1cnn(-c2ccc(F)cc2)c1N)C(F)(F)F)C(=O)c1ccc(F)cc1Cl (racemic) | 76% | 100 nM | 20 nM | 316 nM | 
20 | CCN(CC(O)(CNC(=O)c1cnn(-c2ccc(F)cc2)c1N)C(F)(F)F)C(=O)c1c(Cl)cc(Cl)cc1Cl (racemic) | 100% | 25.1 nM | 6.31 nM | 50.1 nM | 
21 | CCN(CC(O)(CNC(=O)c1cnn(-c2ccc(F)cc2)c1N)C(F)(F)F)C(=O)c1ccc(Cl)cc1 (racemic) |  | > 10000 nM | 316 nM | > 6310 nM | 
22 | CCN(CC(O)(CNC(=O)c1cnn(-c2ccc(F)cc2)c1N)C(F)(F)F)C(=O)c1ccccc1 (racemic) [listing 1 of 2 here] | 88% |  |  |  | 
23 | CCN(CC(O)(CNC(=O)c1cnn(-c2ccc(F)cc2)c1N)C(F)(F)F)C(=O)c1ccccc1Cl (racemic) |  |  |  |  | clearance [11]: 32 mL/min/kg; Vd [12]: 4 L/kg; bioavailability [13]: 25%
24 | CCCN(CC(O)(CNC(=O)c1cnn(-c2ccc(F)cc2)c1N)C(F)(F)F)C(=O)c1c(F)cccc1F (racemic) | 96% | 15.8 nM | 15.8 nM | 25.1 nM | clearance [11]: 36 mL/min/kg; Vd [12]: 5.3 L/kg; bioavailability [13]: 16%
25 | CCN(CC(O)(CNC(=O)c1cnn(-c2ccc(F)cc2)c1N)C(F)(F)F)C(=O)c1c(F)cccc1S(C)(=O)=O (racemic) | 103% | 10 nM | 50.1 nM | 25.1 nM | clearance [11]: 9 mL/min/kg; Vd [12]: 2.6 L/kg; bioavailability [13]: 62%
26 | CCN(CC(O)(CNC(=O)c1cnn(-c2ccc(F)cc2)c1N)C(F)(F)F)C(=O)c1ccc2[nH]ccc2c1 (stereo not given) | 100% | 1 nM | 6.31 nM | 3.16 nM | 
27 | CCN(CC(O)(CNC(=O)c1cnn(-c2ccc(F)cc2)c1N)C(F)(F)F)C(=O)c1ccccc1 (racemic) [listing 2 of 2 here] |  |  | 50.1 nM | 50.1 nM | pIC50 [2]: 7.3; clearance [11]: 21 mL/min/kg; Vd [12]: 2.5 L/kg; bioavailability [13]: 12%
28 | CCN(CC(O)(CNC(=O)c1cnn(-c2ccc(F)cc2)c1N)C(F)(F)F)C(=O)c1ccccc1 (stereo in doubt; 13b) |  |  | 126 nM | > 6310 nM | pIC50 [2]: < 5
